# Measurements from ChEMBL document CHEMBL1201862, “PubChem BioAssay data set” (2004).
#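 Assay format: 96-well plates, 48-hour exposure. GI50: concentration for 50% inhibition of growth.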 Active and inactive are the calls of the source. Rule as the data show it: active = GI50 up to about 1.1 µM and inactive = higher.
# What was measured:
# Assay in all cases: NCI anticancer screen, dose series, 48 h
# MOLT-4 = tested on: MOLT-4
# ACHN = tested on: ACHN
# OVCAR-5 = tested on: OVCAR-5
# UACC-257 = tested on: UACC-257
# NCI-H23 = tested on: NCI-H23
# Malme-3M = tested on: Malme-3M
# LOX IMVI = tested on: LOX IMVI
# SF-539 = tested on: SF-539
# SF-295 = tested on: SF-295
# U-251 = tested on: U-251
# OVCAR-3 = tested on: OVCAR-3
# HT-29 = tested on: HT-29
# RPMI-8226 = tested on: RPMI-8226
# UO-31 = tested on: UO-31
# COLO 205 = tested on: COLO 205
# SK-MEL-28 = tested on: SK-MEL-28
# SN12C = tested on: SN12C
# NCI-H226 = tested on: NCI-H226
# M14 = tested on: M14
# EKVX = tested on: EKVX
Compound,GI50 (MOLT-4),GI50 (ACHN),GI50 (OVCAR-5),GI50 (UACC-257),GI50 (NCI-H23),GI50 (Malme-3M),GI50 (LOX IMVI),GI50 (SF-539),GI50 (SF-295),GI50 (U-251),GI50 (OVCAR-3),GI50 (HT-29),GI50 (RPMI-8226),GI50 (UO-31),GI50 (COLO 205),GI50 (SK-MEL-28),GI50 (SN12C),GI50 (NCI-H226),GI50 (M14),GI50 (EKVX)
CC(NC(=O)c1ccc(OP(=O)(OCC2=CC(=O)c3ccccc3C2=O)N(C)CCCCCl)cc1)c1ccc(OCC2CCCCC2)c(C(N)=O)c1 (stereo not given),12.3 µM (inactive),12.7 µM (inactive),21.4 µM (inactive),4.59 µM (inactive),2.7 µM (inactive),1.88 µM (inactive),4.27 µM (inactive),15.2 µM (inactive),5.06 µM (inactive),10.6 µM (inactive),1.41 µM (inactive),15.1 µM (inactive),11.2 µM (inactive),10.2 µM (inactive),7.28 µM (inactive),14.2 µM (inactive),13.4 µM (inactive),11.1 µM (inactive),3.32 µM (inactive),
O=C1OC(c2ccc(O)cc2)(c2ccc(O)cc2)c2ccc(Cl)c3cccc1c23.O=C1OC(c2ccc(O)cc2)(c2ccc(O)cc2)c2cccc3c(Cl)ccc1c23,,13.9 µM (inactive),9.84 µM (inactive),22.2 µM (inactive),11.1 µM (inactive),9.55 µM (inactive),10.9 µM (inactive),10.7 µM (inactive),12.2 µM (inactive),11.9 µM (inactive),11.5 µM (inactive),12.2 µM (inactive),12.5 µM (inactive),23 µM (inactive),1.03 µM (active),4.09 µM (inactive),8.47 µM (inactive),12.9 µM (inactive),10 µM (inactive),0.075 µM (active)
CC#C[C@@]1(O)CCCC[C@@H]1O,> 100 µM (inactive),> 100 µM (inactive),,> 100 µM (inactive),> 100 µM (inactive),> 100 µM (inactive),> 100 µM (inactive),> 100 µM (inactive),> 100 µM (inactive),> 100 µM (inactive),> 100 µM (inactive),> 100 µM (inactive),> 100 µM (inactive),> 100 µM (inactive),> 100 µM (inactive),> 100 µM (inactive),> 100 µM (inactive),> 100 µM (inactive),> 100 µM (inactive),> 100 µM (inactive)
CCOC(=O)c1nc2ccc(C(F)(F)F)cc2nc1NCc1ccc(Cl)c(Cl)c1,> 100 µM (inactive),22.5 µM (inactive),> 100 µM (inactive),42.4 µM (inactive),40 µM (inactive),21.8 µM (inactive),30.8 µM (inactive),61.9 µM (inactive),29.8 µM (inactive),58.6 µM (inactive),23.3 µM (inactive),29.1 µM (inactive),> 100 µM (inactive),45 µM (inactive),31.8 µM (inactive),,,30.8 µM (inactive),36.9 µM (inactive),22.8 µM (inactive)
O=C(CC(=O)Nc1ccc(C(=O)O)cc1)Nc1ccc(C(=O)O)cc1,> 100 µM (inactive),> 100 µM (inactive),,> 100 µM (inactive),> 100 µM (inactive),> 100 µM (inactive),> 100 µM (inactive),> 100 µM (inactive),> 100 µM (inactive),> 100 µM (inactive),> 100 µM (inactive),> 100 µM (inactive),> 100 µM (inactive),> 100 µM (inactive),> 100 µM (inactive),> 100 µM (inactive),> 100 µM (inactive),> 100 µM (inactive),> 100 µM (inactive),> 100 µM (inactive)
C/C(=C/c1c(C)[nH]c(=O)[nH]c1=O)C(=O)O,> 1370 µM (inactive),,> 1260 µM (inactive),> 1370 µM (inactive),> 1370 µM (inactive),> 1370 µM (inactive),> 1370 µM (inactive),> 1370 µM (inactive),> 1370 µM (inactive),> 1370 µM (inactive),> 1370 µM (inactive),> 1370 µM (inactive),> 1370 µM (inactive),> 1370 µM (inactive),> 1370 µM (inactive),> 1370 µM (inactive),> 1370 µM (inactive),> 1370 µM (inactive),,1290 µM (inactive)
CCN(CC)c1ccc2cc(C(=O)Nc3nc(C45CC6CC(CC(C6)C4)C5)cs3)c(=O)oc2c1,> 100 µM (inactive),> 100 µM (inactive),> 100 µM (inactive),> 100 µM (inactive),> 100 µM (inactive),> 100 µM (inactive),> 100 µM (inactive),> 100 µM (inactive),> 100 µM (inactive),> 100 µM (inactive),> 100 µM (inactive),> 100 µM (inactive),> 100 µM (inactive),> 100 µM (inactive),> 100 µM (inactive),> 100 µM (inactive),> 100 µM (inactive),> 100 µM (inactive),,> 100 µM (inactive)
CCCSc1nc(COC(=O)NC)c(COC(=O)NC)n1C,27.7 µM (inactive),,> 100 µM (inactive),> 100 µM (inactive),> 78.5 µM (inactive),> 100 µM (inactive),> 100 µM (inactive),> 100 µM (inactive),> 100 µM (inactive),,> 100 µM (inactive),> 100 µM (inactive),42 µM (inactive),,> 100 µM (inactive),,,> 100 µM (inactive),,> 100 µM (inactive)
O=c1cc(NNc2ccccc2)[nH]c(=O)[nH]1,27.2 µM (inactive),13.3 µM (inactive),> 100 µM (inactive),16.1 µM (inactive),56.8 µM (inactive),19.8 µM (inactive),19.8 µM (inactive),71.6 µM (inactive),37.9 µM (inactive),16.1 µM (inactive),17.2 µM (inactive),22.1 µM (inactive),11.1 µM (inactive),,17.9 µM (inactive),11.2 µM (inactive),25.9 µM (inactive),19 µM (inactive),,> 100 µM (inactive)
CC(=O)OCCCCn1cnc2c(Cl)nc(Nc3ccccc3)nc21,> 100 µM (inactive),> 100 µM (inactive),> 100 µM (inactive),> 100 µM (inactive),54.7 µM (inactive),> 100 µM (inactive),> 100 µM (inactive),> 100 µM (inactive),> 100 µM (inactive),> 100 µM (inactive),> 100 µM (inactive),> 100 µM (inactive),> 100 µM (inactive),> 100 µM (inactive),> 100 µM (inactive),> 100 µM (inactive),> 100 µM (inactive),> 100 µM (inactive),,> 100 µM (inactive)
O=[N+]([O-])/C=C/c1cn(CCCCCCCCn2cc(/C=C/[N+](=O)[O-])c3ccccc32)c2ccccc12,> 10 µM (inactive),> 10 µM (inactive),> 10 µM (inactive),> 10 µM (inactive),> 10 µM (inactive),> 10 µM (inactive),3.51 µM (inactive),> 10 µM (inactive),> 10 µM (inactive),,> 10 µM (inactive),> 10 µM (inactive),0.41 µM (active),> 10 µM (inactive),> 10 µM (inactive),> 10 µM (inactive),> 10 µM (inactive),> 10 µM (inactive),> 10 µM (inactive),> 10 µM (inactive)
CC1(C)C2CCC3(OCCO3)C1C1OC12 (stereo not given),> 100 µM (inactive),> 100 µM (inactive),> 100 µM (inactive),> 100 µM (inactive),> 100 µM (inactive),> 100 µM (inactive),> 100 µM (inactive),> 100 µM (inactive),> 100 µM (inactive),> 100 µM (inactive),> 100 µM (inactive),> 100 µM (inactive),> 100 µM (inactive),> 100 µM (inactive),> 100 µM (inactive),> 100 µM (inactive),,> 100 µM (inactive),> 100 µM (inactive),> 100 µM (inactive)
N#Cc1c(Nc2ccc(F)cc2)[n+]([O-])c2ccc(Cl)cc2[n+]1[O-],2.52 µM (inactive),,,2.91 µM (inactive),3.84 µM (inactive),27.5 µM (inactive),0.975 µM (active),2.56 µM (inactive),1.85 µM (inactive),2.38 µM (inactive),2.62 µM (inactive),3.47 µM (inactive),2.72 µM (inactive),4.58 µM (inactive),1.95 µM (inactive),16.1 µM (inactive),2.55 µM (inactive),4.51 µM (inactive),3.36 µM (inactive),
O=C(c1cccs1)N(C(=S)N1CCN(c2ccccc2)CC1)c1ccccc1,> 100 µM (inactive),> 100 µM (inactive),> 100 µM (inactive),> 100 µM (inactive),> 100 µM (inactive),> 100 µM (inactive),> 100 µM (inactive),> 100 µM (inactive),> 100 µM (inactive),> 100 µM (inactive),> 100 µM (inactive),> 100 µM (inactive),> 100 µM (inactive),> 100 µM (inactive),> 100 µM (inactive),> 100 µM (inactive),> 100 µM (inactive),47.6 µM (inactive),> 100 µM (inactive),
CN(C)C(=S)SCC(N)=O,> 100 µM (inactive),> 100 µM (inactive),> 100 µM (inactive),> 100 µM (inactive),> 100 µM (inactive),> 100 µM (inactive),> 100 µM (inactive),> 100 µM (inactive),> 100 µM (inactive),> 100 µM (inactive),> 100 µM (inactive),> 100 µM (inactive),> 100 µM (inactive),,> 100 µM (inactive),> 100 µM (inactive),> 100 µM (inactive),45.3 µM (inactive),> 100 µM (inactive),> 100 µM (inactive)
